Measurements: patent US11142525B2 (Pfizer Inc., priority 2018, dated 2021)

The compounds below were run on phospho-SLP-76 (Ser376) in Jurkat cells (assay: Phospho-SLP-76 (Ser376) Homogeneous Time Resolved Fluorescence (HTRF) assay in Jurkat cells). Details: Homo sapiens, 30 min pre-treatment, anti-CD3 stimulation 15 min, HTRF, read-out: SLP76 Assay_IC50.
Type: cell-based
Experimental: Jurkat cells were seeded at 90,000 cells/well in 90 uL of RPMI1640 growth medium containing 10% FBS and incubated at 37° C. with 5% CO2 overnight. The following day, compounds were serially diluted from a 10 mM top dose for an 11-point 3 fold dilution curve in DMSO. Compounds were intermediately diluted 1:100 into growth media prior to diluting 1:10 on cells for final concentration 10 μM to 0.1 nM in 0.1% DMSO. After 30 minutes pre-treatment with compounds, the cells were stimulated using 200 μg/mL of F(ab)2 complexed anti-CD3 (clone UCTH1) for 15 min at 37° C. with 5% CO2. Stimulation was stopped with ice cold PBS and cells were harvested by centrifugation before lysis in Cisbio lysis buffer (Cisbio, Bedford, Mass.). Lysates were transferred to white, low-volume plates containing anti-phospho-SLP-76-Cryptate plus anti-phospho-SLP-76-d2 HTRF antibodies and incubated overnight at room temperature protected from light according to the manufacturer's protocol (Cisbio, Bedford, Mass.). HTRF was measured on a Perkin Elmer Envision and IC50 values were calculated by concentration-response curve fitting utilizing four-parameter nonlinear regression analyses.

IC50 | Structure (SMILES)
134 nM | CNCc1nc(N2CCCC2)cc2c1CN(c1cccc(-c3nncn3[C@@H](C)CC(F)(F)F)n1)C2=O [Example 15, 4-[(methylamino)methyl]-6-(pyrrolidin-1-yl)-2-(6-{4-[(2S)-4,4,4-trifluorobutan-2-yl]-4H-1,2,4-triazol-3-yl}pyridin-2-yl)-2,3-dihydro-1H-pyrrolo[3,4-c]pyridin-1-one]
488 nM | CNCc1nc(NC)cc2c1CN(c1cccc(-c3nncn3C(C)C)n1)C2=O [Example 24]
42 nM | CCCn1c(C)nnc1-c1cccc(N2Cc3c(cc(N4CCC[C@H]4C)nc3CNC)C2=O)n1 [Example 62, 4-[(methylamino)methyl]-2-[6-(5-methyl-4-propyl-4H-1,2,4-triazol-3-yl)pyridin-2-yl]-6-[(2R)-2-methylpyrrolidin-1-yl]-2,3-dihydro-1H-pyrrolo[3,4-c]pyridin-1-one]

Same assay, conditions: Homo sapiens, Phospho-SLP-76 (Ser376) HTRF, anti-CD3 stimulation, read-out: SLP76 Assay_IC50

IC50 | Structure (SMILES)
62 nM | CCn1c(C)nnc1-c1cccc(N2Cc3c(cc(N4CCC[C@H]4C)nc3CNC)C2=O)n1 [Example 121, 2-[6-(4-ethyl-5-methyl-4H-1,2,4-triazol-3-yl)pyridin-2-yl]-4-[(methylamino)methyl]-6-[(2R)-2-methylpyrrolidin-1-yl]-2,3-dihydro-1H-pyrrolo[3,4-c]pyridin-1-one]
232 nM | CCCn1c(C)nnc1-c1cccc(N2Cc3c(cc(N4CCC[C@H]4C)nc3CN)C2=O)n1 [Example 133, 4-(aminomethyl)-2-[6-(5-methyl-4-propyl-4H-1,2,4-triazol-3-yl)pyridin-2-yl]-6-[(2R)-2-methylpyrrolidin-1-yl]-2,3-dihydro-1H-pyrrolo[3,4-c]pyridin-1-one]

The compounds below were run against human full-length recombinant HPK1 (Homo sapiens (Human), UniProt Q92918) (assay: HPK1 biochemical enzyme assay, microfluidic mobility shift assay (MSA)). Details: HPK1 mobility shift assay; read-out: HPK1 Enzyme Assay_Ki.
Experimental: HPK1 enzyme inhibition was measured using a microfluidic mobility shift assay (MSA). […] The reactions were conducted for 60 min at 37° C., stopped by the addition of 50 μL of 0.015 M EDTA, pH 8, and the extent of reactions (˜15-20% conversion with no inhibitor) was determined after electrophoretic separation of the fluorescently labeled peptide substrate and phosphorylated product on an LabChip EZ Reader II (PerkinElmer, Inc., Waltham, Mass.). […]

human full-length recombinant HPK1, sequence (Q92918 whole entry): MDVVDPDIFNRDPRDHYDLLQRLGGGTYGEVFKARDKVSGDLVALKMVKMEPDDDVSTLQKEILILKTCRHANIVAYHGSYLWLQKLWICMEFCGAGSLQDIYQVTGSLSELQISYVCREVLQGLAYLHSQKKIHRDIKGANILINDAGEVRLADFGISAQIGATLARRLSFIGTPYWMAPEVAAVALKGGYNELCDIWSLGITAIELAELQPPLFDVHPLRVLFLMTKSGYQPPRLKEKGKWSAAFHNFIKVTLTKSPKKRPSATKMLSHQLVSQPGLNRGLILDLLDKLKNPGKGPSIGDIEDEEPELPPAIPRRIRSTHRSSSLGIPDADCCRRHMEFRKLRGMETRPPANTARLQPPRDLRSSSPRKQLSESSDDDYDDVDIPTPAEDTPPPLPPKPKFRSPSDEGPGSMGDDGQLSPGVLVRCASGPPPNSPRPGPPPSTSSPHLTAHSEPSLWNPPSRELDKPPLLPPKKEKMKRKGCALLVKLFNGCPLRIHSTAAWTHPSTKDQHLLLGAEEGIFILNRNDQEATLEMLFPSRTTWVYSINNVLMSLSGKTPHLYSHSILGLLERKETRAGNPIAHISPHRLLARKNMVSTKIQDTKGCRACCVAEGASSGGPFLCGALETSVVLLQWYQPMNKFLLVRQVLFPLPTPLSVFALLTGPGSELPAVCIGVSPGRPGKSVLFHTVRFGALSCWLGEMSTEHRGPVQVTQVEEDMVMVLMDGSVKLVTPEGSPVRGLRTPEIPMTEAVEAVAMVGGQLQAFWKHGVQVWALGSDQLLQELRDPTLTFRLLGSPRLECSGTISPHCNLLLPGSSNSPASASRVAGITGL

Structure (SMILES) | Ki
CCNc1cc2c(c(CNC)n1)CN(c1cccc(-c3nncn3C(C)C)n1)C2=O [Example 77, 6-(ethylamino)-4-[(methylamino)methyl]-2-{6-[4-(propan-2-yl)-4H-1,2,4-triazol-3-yl]pyridin-2-yl}-2,3-dihydro-1H-pyrrolo[3,4-c]pyridin-1-one] | 0.68 nM
CCCn1cnnc1-c1cccc(N2Cc3c(cc(N(CC)C(C)C)nc3CNC)C2=O)n1 [Example 99, 6-[ethyl(propan-2-yl)amino]-4-[(methylamino)methyl]-2-[6-(4-propyl-4H-1,2,4-triazol-3-yl)pyridin-2-yl]-2,3-dihydro-1H-pyrrolo[3,4-c]pyridin-1-one] | 0.83 nM
CNCc1nc(N(C)C)cc2c1CN(c1cccc(-c3nncn3[C@@H](C)C(C)C)n1)C2=O [Example 178] | 0.17 nM

Second part, the compound after the results:

Ki | Structure (SMILES)
25.1 nM | CCC(CC(F)(F)F)n1cnnc1-c1cccc(N2Cc3c(cc(C4(C)CC4)nc3CNC)C2=O)n1 (single isomer, unassigned) [Example 180]
0.13 nM | CCC(CC(F)(F)F)n1cnnc1-c1cccc(N2Cc3c(cc(C4(C)CC4)nc3CNC)C2=O)n1 (single isomer, unassigned) [Example 181]
0.35 nM | CC[C@H](CO)n1cnnc1-c1cccc(N2Cc3c(cc(C4(C)CC4)nc3CNC)C2=O)n1 (single isomer, unassigned) [Example 183]
1.15 nM | CC[C@@H](CO)n1cnnc1-c1cccc(N2Cc3c(cc(C4(C)CC4)nc3CNC)C2=O)n1 (single isomer, unassigned) [Example 184]
0.47 nM | CNCc1nc(C2(C)CC2)cc2c1CN(c1cccc(-c3nncn3C3CCCC3)n1)C2=O [Example 179]
0.37 nM | CNCc1nc(N(C)C)cc2c1CN(c1cccc(-c3nncn3[C@H](C)C(C)C)n1)C2=O [Example 182]
1.91 nM | CCCn1c(CC)nnc1-c1cccc(N2Cc3c(cc(N4CCC[C@H]4C)nc3CN)C2=O)n1 [Example 186]
26 nM | CNCc1nc(C2(C)CC2)cc2c1CN(c1cccc(-c3nnc(C)n3C3CCC3)n1)C2=O [Example 187]
41 nM | Cc1nnc(-c2cccc(N3Cc4c(cc(C5(C)CC5)nc4CN)C3=O)n2)n1C1CCC1 [Example 188]

Same assay, conditions: mobility shift assay; 75 μM ATP; Morrison equation, tight-binding competitive inhibition; read-out: HPK1 Enzyme Assay_Ki

Ki | Structure (SMILES)
0.77 nM | CNCc1nc(N2[C@H](C)C[C@H]2C)cc2c1CN(c1cccc(-c3nncn3C(C)C)n1)C2=O [Example 3, 6-[(2R,4R)-2,4-dimethylazetidin-1-yl]-4-[(methylamino)methyl]-2-{6-[4-(propan-2-yl)-4H-1,2,4-triazol-3-yl]pyridin-2-yl}-2,3-dihydro-1H-pyrrolo[3,4-c]pyridin-1-one]
140 nM | CNCc1nccc2c1CN(c1cccc(-c3nncn3C(C)C)n1)C2=O [Example 23, 4-[(methylamino)methyl]-2-{6-[4-(propan-2-yl)-4H-1,2,4-triazol-3-yl]pyridin-2-yl}-2,3-dihydro-1H-pyrrolo[3,4-c]pyridin-1-one]
0.19 nM | CNCc1nc(N2[C@H](C)CC[C@@H]2C)cc2c1CN(c1cccc(-c3nncn3C(C)C)n1)C2=O [Example 27, 6-[(2R,5S)-2,5-dimethylpyrrolidin-1-yl]-4-[(methylamino)methyl]-2-{6-[4-(propan-2-yl)-4H-1,2,4-triazol-3-yl]pyridin-2-yl}-2,3-dihydro-1H-pyrrolo[3,4-c]pyridin-1-one]
0.66 nM | CC(C)n1cnnc1-c1cccc(N2Cc3c(cc(C4CC4)nc3CN)C2=O)n1 [Example 31, 4-(aminomethyl)-6-cyclopropyl-2-{6-[4-(propan-2-yl)-4H-1,2,4-triazol-3-yl]pyridin-2-yl}-2,3-dihydro-1H-pyrrolo[3,4-c]pyridin-1-one]
89.9 nM | CNCc1nc(C(F)(F)F)cc2c1CN(c1cccc(-c3nncn3C(C)C)n1)C2=O [Example 52, 4-[(methylamino)methyl]-2-{6-[4-(propan-2-yl)-4H-1,2,4-triazol-3-yl]pyridin-2-yl}-6-(trifluoromethyl)-2,3-dihydro-1H-pyrrolo[3,4-c]pyridin-1-one]
< 0.06 nM | CCCn1cnnc1-c1cccc(N2Cc3c(cc(N4CCC[C@H]4C)nc3CNC)C2=O)n1 [Example 55, 4-[(methylamino)methyl]-6-[(2R)-2-methylpyrrolidin-1-yl]-2-[6-(4-propyl-4H-1,2,4-triazol-3-yl)pyridin-2-yl]-2,3-dihydro-1H-pyrrolo[3,4-c]pyridin-1-one]
< 0.09 nM | CCCn1cnnc1-c1cccc(N2Cc3c(cc(N(C)C(C)C)nc3CNC)C2=O)n1 [Example 63, 4-[(methylamino)methyl]-6-[methyl(propan-2-yl)amino]-2-[6-(4-propyl-4H-1,2,4-triazol-3-yl)pyridin-2-yl]-2,3-dihydro-1H-pyrrolo[3,4-c]pyridin-1-one]
< 0.17 nM | CCCn1c(C)nnc1-c1cccc(N2Cc3c(cc(N(C)C(C)C)nc3CNC)C2=O)n1 [Example 64, 4-[(methylamino)methyl]-6-[methyl(propan-2-yl)amino]-2-[6-(5-methyl-4-propyl-4H-1,2,4-triazol-3-yl)pyridin-2-yl]-2,3-dihydro-1H-pyrrolo[3,4-c]pyridin-1-one]
1.29 nM | CCc1nnc(-c2cccc(N3Cc4c(cc(N(C)C(C)C)nc4CNC)C3=O)n2)n1CC [Example 67, 2-[6-(4,5-diethyl-4H-1,2,4-triazol-3-yl)pyridin-2-yl]-4-[(methylamino)methyl]-6-[methyl(propan-2-yl)amino]-2,3-dihydro-1H-pyrrolo[3,4-c]pyridin-1-one]

Structure (SMILES) | Ki
CNCc1nc(N2[C@H]3CC[C@@H]2CC3)cc2c1CN(c1cccc(-c3nncn3C(C)C)n1)C2=O [Example 25, 6-[(1s,4s)-7-azabicyclo[2.2.1]hept-7-yl]-4-[(methylamino)methyl]-2-{6-[4-(propan-2-yl)-4H-1,2,4-triazol-3-yl]pyridin-2-yl}-2,3-dihydro-1H-pyrrolo[3,4-c]pyridin-1-one] | 1 nM
